According to paper PMC8302598, “Rapid discovery of self-assembling peptides with one-bead one-compound peptide library” (Nature Communications, 2021):
Entries after “also recorded” stand apart in the source; their conditions may differ.

Columns and labels:
Format in all cases: physicochemical
[1] = Fluorescent-activation screening assay on OBOC beads (NBD); settings: for Bead fluorescence in methanol: NBD N-capped peptide on TentaGel S beads, 20 min; for Fluorescence (beads): peptide N-terminally capped with NBD on TentaGel S beads, in water, fluorescence microscope
Text: It is well known that Aβ16–20 peptide sequence KLVFF can self-assemble into nanofibers in water. We, therefore, chose it as a model peptide to test our screening strategy and used KAAGG as the non-assembling negative control. These control peptides, N-terminally capped with NBD were synthesized with standard Fmoc-chemistry, and TentaGel S resin beads as solid support but without any cleavable linker. After side-chain deprotection, the beads were thoroughly washed with DMF, which was replaced stepwise with water or methanol and then examined under a fluorescent microscope. […] This is expected as the hydrophobicity-sensitive fluorescence dye NBD would fluoresce brightly under hydrophobic condition, in this case, methanol. In water, we expect fluorescent signal emitted from non-sequestered NBD to diminish, unless it is buried inside a hydrophobic environment such as within peptide aggregates or β-sheets formed by KLVFF peptides.
(§1) Once the screening method has been validated with our model KLVFF peptide, a totally random pentapeptide library with 19[5] permutations (cysteine was omitted from the library) was constructed using our previously published methods (Supplementary Fig. 3)[23]. Again, TentaGel S resin (loading of 0.31 mmol/g) was used as the solid support. The pentapeptides in the library were N-terminally capped with NBD. […] The positive bead with an intense fluorescent signal (pointed with a solid arrow) was noted. The rest of the beads were considered negative or weak positive beads. From a total of approximately 100 000 beads screened, we selected a total of eight strongest fluorescent positive beads and four dark beads as negative beads. The peptides were then resynthesized in soluble form and purified by high-performance liquid chromatography (HPLC) for testing (Supplementary Figs. 4–12). The amino acid sequences of the eight self-assembling pentapeptides are FTISD, ITSVV, YFTEF, ISDNL, LDFPI, FAGFT, FGFDP, and FFVDF. Not unexpectedly, of the 40 amino acids in these eight pentapeptides, 50% are hydrophobic residues, predominated by Phe (11 Phe, 4 Ile, 3 Val, and 2 Leu). For the remaining 20 amino acids, six are acidic residues (5 Asp and 1 Glu) and seven are neutral and hydrophilic (4 Thr and 3 Ser). The rest are 2 Pro, 2 Gly, 1 Tyr, 1 Asn, and 1 Ala. All eight peptides have at least two hydrophobic residues. Six out of the eight peptides have one negatively charged residue (Asp or Glu). The remaining two peptides are neutral. […] For the Pro containing pentapeptides, LDFPI and FGFDP, the Pro residue, which promotes peptide turns, resides at the fourth and fifth positions, but not in the middle. Not unexpectedly, all the four randomly selected negative non-assembling peptides (RITTR, PLVKA, PFTTR, and QIMRW) have very different sequences, and contain at least one positive charged amino acid.
The OBOC pentapeptide libraries (19[5]) were built using Fmoc strategy SPPS (solid-phase peptide synthesis) (Supplementary Fig. 3). TentaGel S Resin (named N-beads with loading 0.31 mmol/g) was used as the solid phase support. The pentapeptide sequence of X1 X2 X3 X4 X5 was constructed in the library, in which X1−X5 represents either Ala, Asp, Glu, Phe, Gly, His, Ile, Lys, Leu, Met, Asn, Pro, Gln, Arg, Ser, Thr, Val, Trp, and Tyr residues. During the synthesis of OBOC library, solid support beads were mixed and split equally in each cycle, then different amino acids were added, separately, the process was repeated four times. The synthesis of peptides was used anhydrous DMF as solvent. The Fmoc group was removed by 20% (v/v) piperidine in DMF and the deprotection time was 10 min twice. During the coupling step, the HBTU (4 mM) and Fmoc-amino acid (4 mM) were dissolved in DMF containing NMM (0.4 mM). The coupling time was 50 min. Qualitative Fmoc deprotection and coupling were confirmed by ninhydrin test. All the above experiments were carried out in the solid phase peptide synthesis vessels with sieves in it. […]

[2] = TEM morphology and size of peptide nano-assemblies over time; settings: same peptide preparation in water with 1% DMSO
Text: Self-assembling peptides with good biocompatibility may be used to construct nanocarriers for drug delivery. We recently reported the use of FFVLK, the reverse sequence of KLVFF, as a self-aggregating β-sheet forming domain for the delivery of HER2 targeting peptides for successful treatment of breast cancer in xenograft models. Such FFVLK containing peptide is able to self-assemble into nanoparticles. Upon intravenous administration, the FFVLK-nanoparticle was able to transform into nanofibrillar network when encountering HER2 at the tumor sites. To investigate the morphology of the nano-assembly formed by the eight self-assembling peptides, we dissolved each of these peptides in DMSO (5 mM) and then diluted them 100X with water at a final peptide concentration of 50 μM to induce spontaneous self-assembly. Each sample was fixed immediately after peptide solution preparation and at 4 h time point for subsequent TEM processing and analysis. As clearly shown in Fig. 4a, all eight self-assembling peptides initially formed some nanostructures: nanoparticles for ITSVV, YFTEF, ISDNL, LDFPI, FAGFT, FGFDP, and FTISD; nanofibers for FFVDF. […] LDFPI (8 nm) maintained the particulate morphology without changing of diameter in 4 h. FFVDF formed nanofibers at 0 and 4 h. […] Time-dependent size variations of pentapeptides in water were further confirmed by DLS spectra (Supplementary Fig. 18). The initial diameters of nanoparticles formed by seven pentapeptides were larger than that observed by TEM, probably due to hydration radius. The size of the nanostructure increased over time, correlating well with the morphologic transformation. […] Circular dichroism (CD) was used to monitor the secondary structures of the nano-assembly of the eight self-assembling peptides over time (Supplementary Fig. 20).
(§2) Pentapeptides monomers were dissolved in DMSO at a concentration of 5.0 mM, followed by quick injection into water at a volume ratio of 1:99 for DMSO and H2O to obtain the nanomaterials solution (50 μM). For 30 mM pentapeptide solution, the pentapeptide was dissolved in water and sonicated for 3 min.
(§3) The pentapeptide solution with the concentration of 20 μM (10 μL) was placed dropwise onto a copper mesh for 5 min, then most of the liquid was removed through a filter paper. Ten microliters of uranyl acetate solution were employed to stain the samples for 5 min, followed by drying the spare liquid with the filter. Finally, the copper mesh was washed with 10 μL of deionized water, which was blotted after staining and drying at room temperature. All of the samples were observed by TEM (Tecnai G2 20 S-TWIN) at an accelerating voltage of 200 kV.

[3] = Appearance and TEM of 30 mM peptide in water
Method: To further characterize these self-assembling peptides, we selected two positive peptides (FFVDF and YFTEF) and a negative control peptide (PFTTR) for the following studies: Fourier transform infrared (FT-IR) spectroscopy, UV−Vis spectra, and transmission electron microscopy (TEM).
as §2, §3

[4] = Self-assembly of resynthesized soluble pentapeptides; settings: self-assembly under aqueous environment
Text: as §1
To estimate the propensity of the identified peptides to self-assemble, the critical micelle concentrations (CMC) of the eight positive peptides and four negative peptides were determined, and the results are shown in Table 1 and Supplementary Figs. 13, 14. The CMC of all the eight positive peptides were detectable and found to range between 8.4 and 14.8 μM, indicating the propensity for these peptides to self-assemble under aqueous environment. […] Hydrophobicity of peptides can be predicted by the value of GRAVY[28] with more negative value for more hydrophilic peptides. Of the four negative assembling peptides, two have a negative GRAVY value. […] Experimental testing, such as the screening strategy described in this work, is needed. This is because multiple factors, including hydrophobicity, hydrogen-bonding, electrostatic interactions, and positions of each residue within the peptides, all contribute to the assembling and final morphology of the self-assembled nano-structure. […]

[5] = Turbidity test (transmittance spectra); settings: 20 μM peptide in water
Method: To further confirm the peptide assembling in water, the solutions of pentapeptide were diluted to 20 μM for turbidity test.

[6] = Fluorescent-activation screening assay on OBOC beads (NBD); settings: peptide beads incubated with free dye in water for 2 hours

Row | Nanostructures detected by TEM (negative controls) [2] | Assembly [4] | Substance | Fluorescence (beads) [1] | also measured
1 | – | – | (NBD)-KAAGG-beads [non-assembling negative control KAAGG N-terminally capped with NBD on TentaGel S resin beads, reference compound] | did not | Bead fluorescence in methanol [1]: bright fluorescence
2 | – | – | (NBD)-KLVFF-beads [positive control: Aβ16–20 peptide KLVFF N-terminally capped with NBD on TentaGel S resin beads, reference compound] | fluoresced brightly; also recorded: fluorescence-on | Bead fluorescence in methanol [1]: bright fluorescence
3 | – | – | (NBD)-NFGAIL-beads [additional positive control NFGAIL N-capped with NBD on beads, reference compound] | fluorescence-on | –
4 | no nanostructures were detected | No | PFTTR [randomly selected negative non-assembling pentapeptide] | Off | Nanostructure under TEM ([3]; 30 mM in H2O): no nanostructures observed; Appearance of peptide in water ([3]; 30 mM in water, sonicated 3 min): completely clear solution; Transmittance at 400 nm [5]: 100%
5 | – | – | KAAGG-beads [negative control peptide KAAGG on beads, probed with free reporter dye] | – | Bead fluorescence with free dye (ThT, Nile Red or NBD) [6]: fluorescent off
6 | no nanostructures were detected | No | RITWI [randomly selected negative non-assembling pentapeptide] | Off | –
7 | no nanostructures were detected | No | PLVKA [randomly selected negative non-assembling pentapeptide] | Off | –
8 | – | – | (NBD)-LIVGD-beads [additional positive control LIVGD N-capped with NBD on beads, reference compound] | fluorescence-on | –
9 | no nanostructures were detected | No | QIMRW [randomly selected negative non-assembling pentapeptide] | Off | –
